Measurements from ChEMBL document CHEMBL2413072, “Synthesis and in vitro anticancer studies of novel C-2 arylidene congeners of lantadenes” (2013).

How the values were obtained:
Format in all cases: functional
[1] = test system: KM12; experiment: Growth inhibition of human KM12 cells by sulforhodamine B assay
[2] = test system: HT-29; experiment: Growth inhibition of human HT-29 cells by sulforhodamine B assay
[3] = test system: HOP-62; experiment: Growth inhibition of human HOP62 cells by sulforhodamine B assay
[4] = test system: K562; experiment: Growth inhibition of human K562 cells by sulforhodamine B assay
[5] = test system: UACC-257; experiment: Growth inhibition of human UACC257 cells assessed as cell growth at 10^-8 M by sulforhodamine B assay; conditions: read-out: Activity
[6] = test system: SW-620; experiment: Growth inhibition of human SW620 cells assessed as cell growth at 10^-8 M by sulforhodamine B assay; conditions: read-out: Activity
[7] = test system: HL-60(TB); experiment: Growth inhibition of human HL-60(TB) cells assessed as cell growth at 10^-8 M by sulforhodamine B assay; conditions: read-out: Activity
[8] = test system: MDA-MB-468; experiment: Growth inhibition of human MDA-MB-468 cells by sulforhodamine B assay
[9] = test system: PC-3; experiment: Growth inhibition of human PC3 cells by sulforhodamine B assay
[10] = test system: OVCAR-5; experiment: Growth inhibition of human OVCAR5 cells by sulforhodamine B assay
[11] = test system: SK-MEL-28; experiment: Growth inhibition of human SK-MEL-28 cells by sulforhodamine B assay
[12] = test system: M14; experiment: Growth inhibition of human M14 cells by sulforhodamine B assay
[13] = test system: Malme-3M; experiment: Growth inhibition of human MALME-3M cells by sulforhodamine B assay
[14] = test system: MDA-MB-231; experiment: Growth inhibition of human MDA-MB-231 cells assessed as cell growth at 10^-4 M by sulforhodamine B assay; conditions: read-out: Activity
[15] = test system: TK-10; experiment: Growth inhibition of human TK10 cells assessed as cell growth at 10^-4 M by sulforhodamine B assay; conditions: read-out: Activity
[16] = test system: SF-268; experiment: Growth inhibition of human SF268 cells assessed as cell growth at 10^-4 M by sulforhodamine B assay; conditions: read-out: Activity
[17] = test system: HT-29; experiment: Growth inhibition of human HT-29 cells assessed as cell growth at 10^-4 M by sulforhodamine B assay; conditions: read-out: Activity
[18] = test system: HOP-62; experiment: Growth inhibition of human HOP62 cells assessed as cell growth at 10^-4 M by sulforhodamine B assay; conditions: read-out: Activity
[19] = test system: BT-549; experiment: Growth inhibition of human BT549 cells assessed as cell growth at 10^-6 M by sulforhodamine B assay; conditions: read-out: Activity
[20] = test system: SK-OV-3; experiment: Growth inhibition of human SKOV3 cells assessed as cell growth at 10^-6 M by sulforhodamine B assay; conditions: read-out: Activity
[21] = test system: SK-MEL-5; experiment: Growth inhibition of human SK-MEL-5 cells assessed as cell growth at 10^-6 M by sulforhodamine B assay; conditions: read-out: Activity
[22] = test system: M14; experiment: Growth inhibition of human M14 cells assessed as cell growth at 10^-6 M by sulforhodamine B assay; conditions: read-out: Activity
[23] = test system: LOX IMVI; experiment: Growth inhibition of human LOXIMVI cells assessed as cell growth at 10^-6 M by sulforhodamine B assay; conditions: read-out: Activity
[24] = test system: SNB-75; experiment: Growth inhibition of human SNB75 cells assessed as cell growth at 10^-6 M by sulforhodamine B assay; conditions: read-out: Activity
[25] = Growth inhibition of human HCC2998 cells assessed as cell growth at 10^-6 M by sulforhodamine B assay; conditions: HCC 2998, read-out: Activity
[26] = test system: MOLT-4; experiment: Growth inhibition of human MOLT4 cells assessed as cell growth at 10^-6 M by sulforhodamine B assay; conditions: read-out: Activity
[27] = test system: BT-549; experiment: Growth inhibition of human BT549 cells assessed as cell growth at 10^-7 M by sulforhodamine B assay; conditions: read-out: Activity
[28] = test system: 786-0; experiment: Growth inhibition of human 786-0 cells assessed as cell growth at 10^-7 M by sulforhodamine B assay; conditions: read-out: Activity
[29] = test system: SK-OV-3; experiment: Growth inhibition of human SKOV3 cells assessed as cell growth at 10^-7 M by sulforhodamine B assay; conditions: read-out: Activity
[30] = test system: OVCAR-8; experiment: Growth inhibition of human OVCAR8 cells assessed as cell growth at 10^-7 M by sulforhodamine B assay; conditions: read-out: Activity
[31] = test system: OVCAR-5; experiment: Growth inhibition of human OVCAR5 cells assessed as cell growth at 10^-7 M by sulforhodamine B assay; conditions: read-out: Activity
[32] = test system: UACC-62; experiment: Growth inhibition of human UACC62 cells assessed as cell growth at 10^-7 M by sulforhodamine B assay; conditions: read-out: Activity
[33] = test system: NCI-H23; experiment: Growth inhibition of human NCI-H23 cells assessed as cell growth at 10^-7 M by sulforhodamine B assay; conditions: read-out: Activity
[34] = test system: K562; experiment: Growth inhibition of human K562 cells assessed as cell growth at 10^-7 M by sulforhodamine B assay; conditions: read-out: Activity
[35] = test system: MOLT-4; experiment: Growth inhibition of human MOLT4 cells assessed as cell growth at 10^-7 M by sulforhodamine B assay; conditions: read-out: Activity
[36] = test system: MDA-MB-468; experiment: Growth inhibition of human MDA-MB-468 cells assessed as cell growth at 10^-8 M by sulforhodamine B assay; conditions: read-out: Activity
[37] = test system: UO-31; experiment: Growth inhibition of human UO31 cells assessed as cell growth at 10^-8 M by sulforhodamine B assay; conditions: read-out: Activity
[38] = test system: ACHN; experiment: Growth inhibition of human ACHN cells assessed as cell growth at 10^-8 M by sulforhodamine B assay; conditions: read-out: Activity
[39] = test system: SK-OV-3; experiment: Growth inhibition of human SKOV3 cells assessed as cell growth at 10^-8 M by sulforhodamine B assay; conditions: read-out: Activity
[40] = read-out: LC50 (the source's name)
[41] = read-out: pLC50 (the source's name) (converted)

CC(C)=CC(=O)O[C@@H]1CC(C)(C)C[C@H]2C3=CC[C@@H]4[C@@]5(C)CC[C@H](O)C(C)(C)[C@@H]5CC[C@@]4(C)[C@]3(C)CC[C@@]12C(=O)O [Reduced Lantadene B]
GI50 ([1]; read-out: GI50): 0.862 µM | LC50 (50% net cell kill) ([1]; read-out: LC50): > 100 µM | TGI ([1]; read-out: TGI): 19.6 µM | GI50 ([1]; read-out: pGI50 (converted)): 0.871 µM | LC50 (50% net cell kill) ([1]; read-out: pLC50 (converted)): > 100 µM | TGI ([1]; read-out: pTGI (converted)): 19.5 µM | GI50 ([2]; read-out: GI50): 4.24 µM | LC50 (50% cell kill) ([2]; read-out: LC50): > 100 µM | TGI ([2]; read-out: TGI): 27.1 µM | GI50 ([2]; read-out: pGI50 (converted)): 4.27 µM | LC50 (50% cell kill) ([2]; read-out: pLC50 (converted)): > 100 µM | TGI ([2]; read-out: pTGI (converted)): 26.9 µM | GI50 ([3]; read-out: GI50): 7.47 µM | LC50 (concentration killing 50% of cells) ([3]; read-out: LC50): 79.8 µM | TGI ([3]; read-out: TGI): 26.6 µM | GI50 ([3]; read-out: pGI50 (converted)): 7.41 µM | LC50 (concentration killing 50% of cells) ([3]; read-out: pLC50 (converted)): 79.4 µM | TGI ([3]; read-out: pTGI (converted)): 26.3 µM | GI50 ([4]; read-out: GI50): 3.38 µM | LC50 ([4]; read-out: LC50): > 100 µM | TGI ([4]; read-out: TGI): 93.1 µM | GI50 ([4]; read-out: pGI50 (converted)): 3.39 µM | LC50 ([4]; read-out: pLC50 (converted)): > 100 µM | TGI ([4]; read-out: pTGI (converted)): 93.3 µM | growth at 0.01 µM [5]: 96% | growth at 0.01 µM [6]: 102% | growth at 0.01 µM [7]: 101% | GI50 ([8]; read-out: GI50): 4.17 µM | CC50 [8, 40]: 57.1 µM | TGI ([8]; read-out: TGI): 20.2 µM | GI50 ([8]; read-out: pGI50 (converted)): 4.17 µM | CC50 [8, 41]: 57.5 µM | TGI ([8]; read-out: pTGI (converted)): 20 µM | GI50 ([9]; read-out: GI50): 3.6 µM | CC50 [9, 40]: 64 µM | TGI ([9]; read-out: TGI): 21.9 µM | GI50 ([9]; read-out: pGI50 (converted)): 3.63 µM | CC50 [9, 41]: 64.6 µM | TGI ([9]; read-out: pTGI (converted)): 21.9 µM | GI50 ([10]; read-out: GI50): 15.9 µM | CC50 [10, 40]: 98.9 µM | TGI ([10]; read-out: TGI): 39.7 µM | GI50 ([10]; read-out: pGI50 (converted)): 15.8 µM | CC50 [10, 41]: 100 µM | TGI ([10]; read-out: pTGI (converted)): 39.8 µM | GI50 ([11]; read-out: GI50): 4.89 µM | CC50 [11, 40]: 70.1 µM | TGI ([11]; read-out: TGI): 20.4 µM | GI50 ([11]; read-out: pGI50 (converted)): 4.9 µM | CC50 [11, 41]: 70.8 µM | TGI ([11]; read-out: pTGI (converted)): 20.4 µM | GI50 ([12]; read-out: GI50): 7.71 µM | CC50 [12, 40]: 67.8 µM | TGI ([12]; read-out: TGI): 24.8 µM | GI50 ([12]; read-out: pGI50 (converted)): 7.76 µM | CC50 [12, 41]: 67.6 µM | TGI ([12]; read-out: pTGI (converted)): 24.5 µM | GI50 ([13]; read-out: GI50): 13.7 µM | CC50 [13, 40]: > 100 µM | TGI ([13]; read-out: TGI): 38.6 µM | GI50 ([13]; read-out: pGI50 (converted)): 13.8 µM | CC50 [13, 41]: > 100 µM | TGI ([13]; read-out: pTGI (converted)): 38.9 µM | growth at 100 µM [14]: -79% | growth at 100 µM [15]: -68% | growth at 100 µM [16]: -51% | growth at 100 µM [17]: -36% | growth at 100 µM [18]: -60% | growth at 1 µM [19]: 93% | growth at 1 µM [20]: 104% | growth at 1 µM [21]: 77% | growth at 1 µM [22]: 89% | growth at 1 µM [23]: 88% | growth at 1 µM [24]: 85% | growth at 1 µM [25]: 96% | growth at 1 µM [26]: 78% | growth at 0.1 µM [27]: 98% | growth at 0.1 µM [28]: 96% | growth at 0.1 µM [29]: 103% | growth at 0.1 µM [30]: 101% | growth at 0.1 µM [31]: 111% | growth at 0.1 µM [32]: 90% | growth at 0.1 µM [33]: 92% | growth at 0.1 µM [34]: 91% | growth at 0.1 µM [35]: 94% | growth at 0.01 µM [36]: 92% | growth at 0.01 µM [37]: 89% | growth at 0.01 µM [38]: 103% | growth at 0.01 µM [39]: 102%
